The subject of data set [1] is HCV replicon cells Huh 9B. In words: HCV replicon assay (luciferase readout). Type of data set: cell-based. Summed up: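 Compounds, made up at twice final strength (final DMSO 1%), were added to subgenomic replicon cells one day after plating. Incubation then ran 72 h at 37 °C, 5% CO2, without G418. Replication was quantified as firefly luciferase luminescence in lysed cells, with cytotoxicity assessed on a duplicate clear plate.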
For orientation: In antiviral work, replicon cells carry a viral genome segment that copies itself.

Data set [2] deals with HCV replicon cells Huh 9B. The class given is cell-based.
The mark [3] stands for this setting: Hepatitis C virus, 72 h, concentration reducing replicon level (luciferase activity) by 50% vs untreated cell control, 72 h incubation.
Where [4] appears, read: concentration reducing total cell area by 50% relative to DMSO controls, methylene blue, absorbance 620 nm, 72 h incubation.

Here are results for 23 compounds from patent US8008303B2, “Biphenyl derivatives and their use in treating hepatitis C” (AstraZeneca AB, priority 2005, dated 2011).

By IC50 is commonly meant the concentration needed to halve the response being measured.

Each structure is given as a SMILES string. Like-named read-outs stand apart in the source and are kept apart here.

Turning to `COc1ccc(C(=O)Nc2ccc(-c3cc(C(=O)Nc4ccc(N5CCOCC5)cc4)ccc3C)cc2)cc1OC` [Example 110, 4′-(3,4-Dimethoxy-benzoylamino)-6-methyl-biphenyl-3-carboxylic acid (4-morpholin-4-yl-phenyl)-amide], the IC50 in data set [1] (setting [3]) was 1000 to 5000 nM. The TD50 result in data set [2] (setting [4]) was “** (** > 50 μM)”.

The compound `Cc1ccc(NC(=O)C2CCCCC2)cc1-c1ccc(C(=O)Nc2ccc(CN3CCOCC3)cc2)cc1` [Example 226, 5′-(Cyclohexanecarbonyl-amino)-2′-methyl-biphenyl-4-carboxylic acid (4-morpholin-4-ylmethyl-phenyl)-amide] registered an IC50 in data set [1] (setting [3]) below 1000 nM. Further, the TD50 result in data set [2] (setting [4]) is given as “* (* < 50 μM)”.

As for `CCCS(=O)(=O)N1CCN(Cc2ccc(NC(=O)c3ccc(-c4cc(NC(=O)C5CC5)ccc4OC(F)(F)F)cc3)cc2)CC1` [Example 237, 5′-(Cyclopropanecarbonyl-amino)-2′-trifluoromethoxy-biphenyl-4-carboxylic acid {4-[4-(propane-1-sulfonyl)-piperazin-1-ylmethyl]-phenyl}-amide], the IC50 in data set [1] (setting [3]) was below 1000 nM. Also, the TD50 entry in data set [2] (setting [4]) was “* (* < 50 μM)”.

In data set [1], `Cc1ccc(C(=O)Nc2ccc(N3CCOCC3)cc2)cc1-c1ccc(C(=O)Nc2ccc(Cl)c(Cl)c2)cc1` [Example 22, 6-Methyl-biphenyl-3,4′-dicarboxylic acid 4′-[(3,4-dichloro-phenyl)-amide] 3-[(4-morpholin-4-yl-phenyl)-amide]] displayed an IC50 of 1000 to 5000 nM. For the same compound, the TD50 result in data set [2] is “** (key: * < 50 μM; ** > 50 μM)”.

In data set [1] (setting [3]), `Cc1ccc(C(=O)Nc2ccc(N3CCOCC3)cc2)cc1-c1ccc(C(=O)NCc2cccc(CNC(=O)OC(C)(C)C)c2)cc1` [Example 47, [3-({[2′-Methyl-5′-(4-morpholin-4-yl-phenylcarbamoyl)-biphenyl-4-carbonyl]-amino}-methyl)-benzyl]-carbamic acid tert-butyl ester] had an IC50 above 5000 nM. For the same compound, the TD50 result in data set [2] (setting [4]) was “** (** > 50 μM)”.

`CNC(=O)c1ccc(NC(=O)c2ccc(C)c(-c3ccc(C(=O)Nc4ccc(CN5CCS(=O)(=O)CC5)cc4)cc3)c2)cc1` [Example 141, 6-Methyl-biphenyl-3,4′-dicarboxylic acid 4′-{[4-(1,1-dioxo-1lambda*6*-thiomorpholin-4-ylmethyl)-phenyl]-amide} 3-[(4-methylcarbamoyl-phenyl)-amide]] showed an IC50 in data set [1] of 1000 to 5000 nM. The TD50 result in data set [2] was “* (key: * < 50 μM; ** > 50 μM)”.

The compound `Cc1ccc(NC(=O)c2cscn2)cc1-c1ccc(C(=O)Nc2ccc(CN3CCS(=O)(=O)CC3)cc2)cc1` [Example 177, Thiazole-4-carboxylic acid {4′-[4-(1,1-dioxo-1lambda*6*-thiomorpholin-4-ylmethyl)-phenylcarbamoyl]-6-methyl-biphenyl-3-yl}-amide] displayed an IC50 in data set [1] (setting [3]) of 1000 to 5000 nM. For the same compound, the TD50 result in data set [2] (setting [4]) is given as “* (* < 50 μM)”.

Turning to `Cc1ccc(NS(=O)(=O)c2ccc(Cl)s2)cc1-c1ccc(C(=O)Nc2ccc(CN3CCS(=O)(=O)CC3)cc2)cc1` [Example 204, 5′-(5-Chloro-thiophene-2-sulfonylamino)-2′-methyl-biphenyl-4-carboxylic acid [4-(1,1-dioxo-1lambda*6*-thiomorpholin-4-ylmethyl)-phenyl]-amide], the IC50 in data set [1] (setting [3]) fell in the range of 1000 to 5000 nM. Besides, the TD50 entry in data set [2] (setting [4]) is “* (* < 50 μM)”.

With `COc1ccc(C(=O)Nc2ccc(N3CCOCC3)cc2)cc1-c1ccc(C(=O)Nc2ccc(CN3CCN(S(=O)(=O)C(C)C)CC3)cc2)cc1` [Example 258, 6-Methoxy-biphenyl-3,4′-dicarboxylic acid 3-[(4-morpholin-4-yl-phenyl)-amide] 4′-({4-[4-(propane-2-sulfonyl)-piperazin-1-ylmethyl]-phenyl}-amide)], in data set [1], the IC50 is below 1000 nM. The TD50 entry in data set [2] (setting [4]) is “* (* < 50 μM)”.

For the compound `Cc1ccc(C(=O)NCc2cccc(F)c2)cc1-c1ccc(C(=O)Nc2ccc(CN3CCS(=O)(=O)CC3)cc2)cc1` [Example 123, 6-Methyl-biphenyl-3,4′-dicarboxylic acid 4′-{[4-(1,1-dioxo-1lambda*6*-thiomorpholin-4-ylmethyl)-phenyl]-amide} 3-(3-fluoro-benzylamide)], the IC50 in data set [1] is below 1000 nM. For the same compound, in data set [2], the TD50 entry is given as “* (key: * < 50 μM; ** > 50 μM)”.

As for `O=C(Nc1ccc(CN2CCS(=O)(=O)CC2)cc1)c1ccc(-c2cccc(C(=O)Nc3ccc(N4CCOCC4)cc3)c2)cc1` [Example 120, Biphenyl-3,4′-dicarboxylic acid 4′-{[4-(1,1-dioxo-1lambda*6 *-thiomorpholin-4-ylmethyl)-phenyl]-amide} 3-[(4-morpholin-4-yl-phenyl)-amide]], the IC50 in data set [1] lay within 1000 to 5000 nM. Also, the TD50 entry in data set [2] is “** (key: * < 50 μM; ** > 50 μM)”.

Turning to `Cc1ccc(C(=O)Nc2ccc(N3CCOCC3)cc2)cc1-c1ccc(C(=O)Nc2ccc3[nH]ccc3c2)cc1` [Example 45, 6-Methyl-biphenyl-3,4′-dicarboxylic acid 4′-[(1H-indol-5-yl)-amide] 3-[(4-morpholin-4-yl-phenyl)-amide]], the IC50 in data set [1] lay in the range of 1000 to 5000 nM. Also, in data set [2], the TD50 entry is “** (key: * < 50 μM; ** > 50 μM)”.

For `Cc1ccc(NC(=O)C2CC2)cc1-c1ccc(NC(=O)c2ccc(CN3CCS(=O)(=O)CC3)cc2)cc1` [Example 149, N-[5′-(Cyclopropanecarbonyl-amino)-2′-methyl-biphenyl-4-yl]-4-(1,1-dioxo-1lambda*6*-thiomorpholin-4-ylmethyl)-benzamide], the IC50 in data set [1] (setting [3]) was below 1000 nM. In addition, the TD50 entry in data set [2] (setting [4]) is given as “* (* < 50 μM)”.

On to `Cc1ccc(C(=O)NC2CCCCCC2)cc1-c1ccc(C(=O)Nc2ccc(CN3CCS(=O)(=O)CC3)cc2)cc1` [Example 147, 6-Methyl-biphenyl-3,4′-dicarboxylic acid 3-cycloheptylamide 4′-{[4-(1,1-dioxo-1lambda*6*-thiomorpholin-4-ylmethyl)-phenyl]-amide}], for which the IC50 in data set [1] is 1000 to 5000 nM. The TD50 entry in data set [2] is recorded as “* (key: * < 50 μM; ** > 50 μM)”.

`Cc1ccc(NC(=O)C2CCCCC2)cc1-c1ccc(C(=O)Nc2ccc(CN3CCS(=O)(=O)CC3)cc2)cc1` [Example 158, 5′-(Cyclohexanecarbonyl-amino)-2′-methyl-biphenyl-4-carboxylic acid [4-(1,1-dioxo-1lambda*6*-thiomorpholin-4-ylmethyl)-phenyl]-amide] had an IC50 in data set [1] (setting [3]) below 1000 nM. The TD50 entry in data set [2] (setting [4]) was “* (* < 50 μM)”.

`CN1CCN(C(=O)Nc2ccc(OC(F)(F)F)c(-c3ccc(C(=O)Nc4ccc(CN5CCN(S(C)(=O)=O)CC5)cc4)cc3)c2)CC1` [Example 239, 4-Methyl-piperazine-1-carboxylic acid {4′-[4-(4-methanesulfonyl-piperazin-1-ylmethyl)-phenylcarbamoyl]-6-trifluoromethoxy-biphenyl-3-yl}-amide]: in data set [1] (setting [3]), the IC50 is below 1000 nM. In addition, in data set [2] (setting [4]), the TD50 result is given as “* (* < 50 μM)”.

`CCOC(=O)c1cccc(NC(=O)c2ccc(-c3cc(C(=O)Nc4ccc(N5CCOCC5)cc4)ccc3C)cc2)c1` [Example 32, 3-{[2′-Methyl-5′-(4-morpholin-4-yl-phenylcarbamoyl) -biphenyl-4-carbonyl]-amino}-benzoic acid ethyl ester] yielded an IC50 in data set [1] (setting [3]) below 1000 nM. The TD50 entry in data set [2] (setting [4]) is given as “** (** > 50 μM)”.

Consider `O=C(Nc1ccc(CN2CCS(=O)(=O)CC2)cc1)c1ccc(-c2cc(NC(=O)C3CC3)ccc2OC(F)(F)F)cc1` [Example 185, 5′-(Cyclopropanecarbonyl-amino)-2′-trifluoromethoxy-biphenyl-4-carboxylic acid [4-(1,1-dioxo-1lambda*6*-thiomorpholin-4-ylmethyl)-phenyl]-amide], for which the IC50 in data set [1] (setting [3]) was below 1000 nM. Moreover, in data set [2] (setting [4]), the TD50 entry was “* (* < 50 μM)”.

Consider `O=C(Nc1ccc(CN2CCS(=O)(=O)CC2)cc1)c1ccc(-c2cc(NC(=O)C3CCCCC3)ccc2F)cc1` [Example 191, 5′-(Cyclohexanecarbonyl-amino)-2′-fluoro-biphenyl-4-carboxylic acid [4-(1,1-dioxo-1lambda*6*-thiomorpholin-4-ylmethyl)-phenyl]-amide], for which the IC50 in data set [1] (setting [3]) was above 5000 nM. In addition, the TD50 entry in data set [2] (setting [4]) is reported as “* (* < 50 μM)”.

`Cc1cccc(CNC(=O)c2ccc(-c3cc(C(=O)Nc4ccc(N5CCOCC5)cc4)ccc3C)cc2)c1` [Example 3, 6-Methyl-biphenyl-3,4′-dicarboxylic acid 4′-(3-methyl-benzylamide) 3-[(4-morpholin-4-yl-phenyl)-amide]]: in data set [1], the IC50 fell in the range of 1000 to 5000 nM. In data set [2], the TD50 result is “** (key: * < 50 μM; ** > 50 μM)”.

Compound `CCC(CC)C(=O)Nc1ccc(C)c(-c2ccc(C(=O)Nc3ccc(CN4CCS(=O)(=O)CC4)cc3)cc2)c1` [Example 181, 5′-(2-Ethyl-butyrylamino)-2′-methyl-biphenyl-4-carboxylic acid [4-(1,1-dioxo-1lambda*6*-thiomorpholin-4-ylmethyl)-phenyl]-amide] returned an IC50 in data set [1] (setting [3]) below 1000 nM. In data set [2] (setting [4]), the TD50 result is “* (* < 50 μM)”.

`Cc1ccc(C(=O)Nc2ccc(N3CCOCC3)cc2)cc1-c1ccc(C(=O)Nc2ccccc2CN(C)C2CCCCC2)cc1` [Example 35, 6-Methyl-biphenyl-3,4′-dicarboxylic acid 4′-({2-[(cyclohexyl-methyl-amino)-methyl]-phenyl}-amide) 3-[(4-morpholin-4-yl-phenyl)-amide]]: the IC50 in data set [1] is above 5000 nM. Further, the TD50 entry in data set [2] is on record as “** (key: * < 50 μM; ** > 50 μM)”.

The compound `Cc1ccc(C(=O)NCC2CCCCC2)cc1-c1ccc(C(=O)Nc2ccc(CN3CCS(=O)(=O)CC3)cc2)cc1` [Example 146, 6-Methyl-biphenyl-3,4′-dicarboxylic acid 3-cyclohexylmethyl-amide 4′-{[4-(1,1-dioxo-1lambda*6*-thiomorpholin-4-ylmethyl)-phenyl]-amide}] yielded an IC50 in data set [1] below 1000 nM. Also, in data set [2], the TD50 result was “* (key: * < 50 μM; ** > 50 μM)”.
